Literature values, collected in PMC13335693, “Discovery of a Potent Fluorescence Polarization Probe for Identifying USP1 Allosteric Inhibitors” (Advanced Science, 2026).

Details: stated for compound 4 as known drawback; no reference given

Compound: Cc1cnc(-c2ccccc2C(C)C)nc1NCc1ccc(-n2ccnn2)cc1 [ML323]
- half-life in mouse liver microsomes (MLM): 15 min
